The record followed here is US9840478B2 (MERCK SHARP & DOHME CORP., priority 2013, dated 2017).

The first assay relates to HIV-1 (H9IIIB strain). Nature of the assay: Cell-based HIV infection assay using a reporter (Cell-Based), MT4-GFP cells. The conditions noted are these: Human immunodeficiency virus 1, MT4-GFP cells infected with HIV-1 H9IIIB; 50% normal human serum; mean of at least two independent experiments; read-out: Cell-based IP. A digest of the protocol: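 MT4-GFP cells (HIV LTR-driven GFP) infected 24 h with HIV-1 H9IIIB at low MOI, then washed and plated with compounds in RPMI + 50% normal human serum, 0.4% DMSO final. Green cells counted at 24 and 48 h; R0 = 48 h/24 h ratio, inhibition normalized to DMSO and triple-drug control; IC50 from 4-parameter fit.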
Take `CS(=O)(=O)N1C(COCc2ccccc2)CNC[C@@H]1CCc1c(F)cccc1NC(=O)[C@@H](N)[C@@H](Cc1ccc(F)cc1)c1ccc(Cl)cc1` (stereo partly drawn) [Example 226, (βS)-N-(2-{2-[(2S)-6-[(benzyloxy)methyl]-1-(methylsulfonyl)piperazin-2-yl]ethyl}-3-fluorophenyl)-4-chloro-β-(4-fluorobenzyl)-L-phenylalaninamide]: the IC50 was found to be 1100 nM.

For the compound `C[C@@H]1CNC[C@H](CCc2c(F)cncc2NC(=O)[C@@H](N)[C@@H](c2ccc(F)cc2)c2cc(F)cc(F)c2)N1S(=O)(=O)c1ccc(OC(F)(F)F)cc1` [Example 227, (βS)-β-(3,5-difluorophenyl)-4-fluoro-N-(5-fluoro-4-{2-[(2S,6R)-6-methyl-1-{[4-(trifluoromethoxy)phenyl]sulfonyl}piperazin-2-yl]ethyl}pyridin-3-yl)-L-phenylalaninamide], the IC50 amounted to 23 nM. As for `C[C@H]1CNC[C@H](CCc2c(F)cccc2NC(=O)[C@@H](N)[C@@H](c2ccc(F)cc2)c2cc(F)cc(F)c2)N1S(=O)(=O)c1ccccc1Cl` [Example 229, (βS)-N-[2-(2-{(2S,6S)-1-[(2-chlorophenyl)sulfonyl]-6-methylpiperazin-2-yl}ethyl)-3-fluorophenyl]-β-(3,5-difluorophenyl)-4-fluoro-L-phenylalaninamide], the IC50 amounted to 350 nM. Same read-out and setting: the value for `C[C@@H]1CNC[C@H](CCc2c(F)cccc2NC(=O)[C@@H](N)[C@@H](c2ccc(F)cc2)c2cc(F)cc(F)c2)N1S(=O)(=O)c1ccccc1Cl` [Example 230, (βS)-N-[2-(2-{(2S,6R)-1-[(2-chlorophenyl)sulfonyl]-6-methylpiperazin-2-yl}ethyl)-3-fluorophenyl]-β-(3,5-difluorophenyl)-4-fluoro-L-phenylalaninamide] was 290 nM; that for `COC(=O)N[C@H](C(=O)Nc1cccc(F)c1CC[C@H]1CNC[C@H](C)N1S(=O)(=O)c1ccccc1Cl)[C@@H](c1ccc(F)cc1)c1cc(F)cc(F)c1` [Example 231, (βS)-N-[2-(2-{(2S,6S)-1-[(2-chlorophenyl)sulfonyl]-6-methylpiperazin-2-yl}ethyl)-3-fluorophenyl]-β-(3,5-difluorophenyl)-4-fluoro-Nα-(methoxycarbonyl)-L-phenylalaninamide] was 230 nM. The same measure, in the same setting: the value for `COC(=O)N[C@H](C(=O)Nc1cccc(F)c1CC[C@H]1CNC[C@@H](C)N1S(=O)(=O)c1ccccc1Cl)[C@@H](c1ccc(F)cc1)c1cc(F)cc(F)c1` [Example 232, (βS)-N-[2-(2-{(2S,6R)-1-[(2-chlorophenyl)sulfonyl]-6-methylpiperazin-2-yl}ethyl)-3-fluorophenyl]-β-(3,5-difluorophenyl)-4-fluoro-Nα-(methoxycarbonyl)-L-phenylalaninamide] was 190 nM; that for `COC(=O)N[C@H](C(=O)Nc1cccc(F)c1CC[C@H]1CNC[C@H](C)N1S(C)(=O)=O)[C@@H](Cc1ccc(F)cc1)c1ccc(Cl)cc1` [Example 233, (βS)-4-chloro-β-(4-fluorobenzyl)-N-(3-fluoro-2-{2-[(2S,6S)-6-methyl-1-(methylsulfonyl)piperazin-2-yl]ethyl}phenyl)-Nα-(methoxycarbonyl)-L-phenylalaninamide] was 330 nM. In the case of `COC(=O)N[C@H](C(=O)Nc1cccc(F)c1CC[C@H]1CNC[C@H](C)N1S(=O)(=O)c1ccc(OC(F)(F)F)cc1)[C@@H](c1ccc(F)cc1)c1cc(F)cc(F)c1` [Example 234, (βS)-β-(3,5-difluorophenyl)-4-fluoro-N-(3-fluoro-2-{2-[(2S,6S)-6-methyl-1-{[4-(trifluoromethoxy)phenyl]sulfonyl}piperazin-2-yl]ethyl}phenyl)-Nα-(methoxycarbonyl)-L-phenylalaninamide], the IC50 came to 49 nM. On the same count and under the same terms, the value for `COc1ccccc1S(=O)(=O)N1[C@@H](CCc2c(F)cncc2NC(=O)[C@@H](N)[C@@H](c2ccc(F)cc2)c2cc(F)cc(F)c2)CNC[C@@H]1C` [Example 235, (βS)-β-(3,5-difluorophenyl)-4-fluoro-N-[5-fluoro-4-(2-{(2S,6S)-1-[(2-methoxyphenyl)sulfonyl]-6-methylpiperazin-2-yl}ethyl)pyridin-3-yl]-L-phenylalaninamide] was 23 nM; that for `C[C@H]1CNC[C@H](CCc2c(F)cccc2NC(=O)[C@@H](N)[C@@H](c2ccc(Cl)cc2)c2cncc(F)c2)N1S(=O)(=O)c1ccccc1` [Example 236, (βS)-4-chloro-N-(3-fluoro-2-{2-[(2S,6S)-6-methyl-1-(phenylsulfonyl)piperazin-2-yl]ethyl}phenyl)-β-(5-fluoropyridin-3-yl)-L-phenylalaninamide] was 8.2 nM.

As to `COC(=O)N[C@H](C(=O)Nc1cccc(F)c1CC[C@H]1CNCC(COC(C)C)N1S(=O)(=O)C1CC1)[C@@H](c1ccc(F)cc1)c1cc(F)cc(F)c1` (stereo partly drawn) [Example 237, (βS)-N-[2-(2-{(2S)-1-(cyclopropylsulfonyl)-6-[(1-methylethoxy)methyl]piperazin-2-yl}ethyl)-3-fluorophenyl]-β-(3,5-difluorophenyl)-4-fluoro-Nα-(methoxycarbonyl)-L-phenylalaninamide], the IC50 is 30 nM. Same read-out and setting: the value for `COc1ccccc1S(=O)(=O)N1[C@@H](CCc2c(F)cccc2NC(=O)[C@@H](N)[C@@H](c2ccc(F)cc2)c2cc(F)cc(F)c2)CNC[C@@H]1C` [Example 238, (βS)-β-(3,5-difluorophenyl)-4-fluoro-N-[3-fluoro-2-(2-{(2S,6S)-1-[(2-methoxyphenyl)sulfonyl]-6-methylpiperazin-2-yl}ethyl)phenyl]-L-phenylalaninamide] was 110 nM; that for `COc1ccccc1S(=O)(=O)N1[C@@H](CCc2c(F)cccc2NC(=O)[C@@H](N)[C@@H](c2ccc(F)cc2)c2cc(F)cc(F)c2)CNC[C@H]1C` [Example 239, (βS)-β-(3,5-difluorophenyl)-4-fluoro-N-[3-fluoro-2-(2-{(2S,6R)-1-[(2-methoxyphenyl)sulfonyl]-6-methylpiperazin-2-yl}ethyl)phenyl]-L-phenylalaninamide] was 130 nM; that for `COC(=O)N[C@H](C(=O)Nc1cccc(F)c1CC[C@H]1CNC[C@H](C)N1S(=O)(=O)c1ccccc1OC)[C@@H](c1ccc(F)cc1)c1cc(F)cc(F)c1` [Example 240, (βS)-β-(3,5-difluorophenyl)-4-fluoro-N-[3-fluoro-2-(2-{(2S,6S)-1-[(2-methoxyphenyl)sulfonyl]-6-methylpiperazin-2-yl}ethyl)phenyl]-Nα-(methoxycarbonyl)-L-phenylalaninamide] was 71 nM.

In the case of `COCC1CNC[C@H](CCc2c(F)cccc2NC(=O)[C@@H](N)[C@@H](c2ccc(F)cc2)c2cc(F)cc(F)c2)N1S(=O)(=O)C1CC1` (stereo partly drawn) [Example 241, (βS)-N-(2-{2-[(2S)-1-(cyclopropylsulfonyl)-6-(methoxymethyl)piperazin-2-yl]ethyl}-3-fluorophenyl)-β-(3,5-difluorophenyl)-4-fluoro-L-phenylalaninamide], the IC50 was 39 nM. As to `CC(C)OCC1CNC[C@H](CCc2c(F)cccc2NC(=O)[C@@H](N)[C@H](c2cccc(F)c2)c2cccc(Cl)c2)N1S(C)(=O)=O` (stereo partly drawn) [Example 242, (βR)-β-(3-chlorophenyl)-3-fluoro-N-(3-fluoro-2-{2-[(2S)-6-[(1-methylethoxy)methyl]-1-(methylsulfonyl)piperazin-2-yl]ethyl}phenyl)-L-phenylalaninamide], the IC50 is 220 nM. On the same count and under the same terms, the value for `C[C@H]1CNC[C@H](CCc2c(F)cncc2NC(=O)[C@@H](N)[C@@H](c2ccc(F)cc2)c2cc(F)cc(F)c2)N1S(=O)(=O)c1ccc(OC(F)(F)F)cc1` [Example 243, (βS)-β-(3,5-difluorophenyl)-4-fluoro-N-(5-fluoro-4-{2-[(2S,6S)-6-methyl-1-{[4-(trifluoromethoxy)phenyl]sulfonyl}piperazin-2-yl]ethyl}pyridin-3-yl)-L-phenylalaninamide] was 17 nM; that for `COc1ccc(S(=O)(=O)N2[C@@H](CCc3c(F)cncc3NC(=O)[C@@H](N)[C@@H](c3ccc(F)cc3)c3cc(F)cc(F)c3)CNC[C@@H]2C)cc1` [Example 244, (βS)-β-(3,5-difluorophenyl)-4-fluoro-N-[5-fluoro-4-(2-{(2S,6S)-1-[(4-methoxyphenyl)sulfonyl]-6-methylpiperazin-2-yl}ethyl)pyridin-3-yl]-L-phenylalaninamide] was 5.9 nM. Same read-out and setting: the value for `C[C@H]1CNC[C@H](CCc2c(F)cncc2NC(=O)[C@@H](N)[C@@H](c2ccc(F)cc2)c2cc(F)cc(F)c2)N1S(=O)(=O)c1ccccc1Cl` [Example 245, (βS)-N-[4-(2-{(2S,6S)-1-[(2-chlorophenyl)sulfonyl]-6-methylpiperazin-2-yl}ethyl)-5-fluoropyridin-3-yl]-β-(3,5-difluorophenyl)-4-fluoro-L-phenylalaninamide] was 51 nM; that for `COC(=O)N[C@H](C(=O)Nc1cncc(F)c1CC[C@H]1CNC[C@H](C)N1S(=O)(=O)c1ccc(OC)cc1)[C@@H](c1ccc(F)cc1)c1cc(F)cc(F)c1` [Example 246, (βS)-β-(3,5-difluorophenyl)-4-fluoro-N-[5-fluoro-4-(2-{(2S,6S)-1-[(4-methoxyphenyl)sulfonyl]-6-methylpiperazin-2-yl}ethyl)pyridin-3-yl]-Nα-(methoxycarbonyl)-L-phenylalaninamide] was 5.9 nM.

The assay is the same for the next values; noted with them: MT4-GFP cells infected with HIV-1 H9IIIB; 50% normal human serum; mean of at least two independent experiments; read-out: Cell-based IP.
As to `CC(C)OCC1CNC[C@H](CCc2c(F)cccc2NC(=O)[C@@H](N)[C@@H](c2ccc(F)cc2)c2cc(F)cc(F)c2)N1S(=O)(=O)C1CC1` (stereo partly drawn) [Example 228, (βS)-N-[2-(2-{(2S)-1-(cyclopropylsulfonyl)-6-[(1-methylethoxy)methyl]piperazin-2-yl}ethyl)-3-fluorophenyl]-β-(3,5-difluorophenyl)-4-fluoro-L-phenylalaninamide], the IC50 was 15 nM.
